Source: PMC12281424, “A Rac-specific competitive inhibitor of guanine nucleotide binding reduces metastasis in triple-negative breast cancer” (Cell Reports Medicine, 2025)

How the values were obtained:
[1] = tested on: RAC1-dependent membrane ruffle formation in NIH 3T3 cells; experiment: EGF-induced membrane ruffle formation; type: cell-based
Description: Figure 2 Identification of a new RAC1 inhibitor (A) Effect of A41 and NSC23766 on ruffle formation (white arrows) induced by EGF (10 ng/mL) in NIH 3T3 cells in serum-free culture medium (CTL). Inhibitors were added at indicated concentration 1 h prior to EGF stimulation. To assess cytoskeleton organization, cells were incubated with Alexa Fluor 488 phalloidin to visualize F-actin. Results shown are representative of 3 independent experiments. Corresponding concentration-response curves have been established by counting the percentages of cells with ruffles (scale bars: 10 μm). (B) Immunoblot analysis and associated quantification of RAC-GTP level and total RAC expression in NIH 3T3 cells stimulated by EGF (10 ng/mL, 5 min) and pre-incubated or not (−) with NSC23766, A41, or A415 at 10^−5 M for 1 h (∗∗∗p < 0.001 vs. controls without EGF stimulation, ^###p < 0.001 vs. controls with EGF stimulation) (N > 3). […] (D) Representative in vitro nucleotide exchange catalyzed by the DH-PH of TIAM (10 nM) measured by the binding of fluorescent mant-GTP (1 μM) to RAC1 (0.5 μM, preloaded with GDP) in the presence of indicated concentrations of A41 (out of N = 6). […] (E) Kobs and Kmax were determined in each condition (N = 6). […]
After indicated treatments, cells were fixed with 4% paraformaldehyde and permeabilized in PBS 0.5% Triton X-100. […] Cancer cells were detected with firefly luciferase antibody (ab21176, Abcam) (dilution 1/500) overnight at room temperature, followed by secondary Alexa 488-labeled anti-rabbit antibody (dilution 1/1000). […] After staining, cells were mounted in Prolong gold antifade reagent with DAPI and images were captured by a fluorescence microscope. […]
Supp. […] For each molecule, druglikeness has been assessed according to Lipinski’s rules: molecular weight (MW)<500; high lipophilicity (LogP<5); less than 5 hydrogen bond donors (HBD); less than 10 hydrogen bond acceptors (HBA). The log P was calculated by using OSIRIS – Data Warrior software. […] IC50 was determined experimentally from the inhibition

RAC1 = target: T1, RAC1 (Mus musculus, UniProt P63001); experiment: RAC-GTP pull-down assay, EGF-stimulated NIH/3T3 fibroblasts; type: cell-based; conditions: 10^-5 M, 1 h, EGF 10 ng/mL 5 min
T1 construct: endogenous in cells; host or cells: NIH/3T3 fibroblasts (ATCC CRL-1658), EGF-stimulated
Description: Figure 2 Identification of a new RAC1 inhibitor (A) Effect of A41 and NSC23766 on ruffle formation (white arrows) induced by EGF (10 ng/mL) in NIH 3T3 cells in serum-free culture medium (CTL). Inhibitors were added at indicated concentration 1 h prior to EGF stimulation. To assess cytoskeleton organization, cells were incubated with Alexa Fluor 488 phalloidin to visualize F-actin. Results shown are representative of 3 independent experiments. Corresponding concentration-response curves have been established by counting the percentages of cells with ruffles (scale bars: 10 μm). (B) Immunoblot analysis and associated quantification of RAC-GTP level and total RAC expression in NIH 3T3 cells stimulated by EGF (10 ng/mL, 5 min) and pre-incubated or not (−) with NSC23766, A41, or A415 at 10^−5 M for 1 h (∗∗∗p < 0.001 vs. controls without EGF stimulation, ^###p < 0.001 vs. controls with EGF stimulation) (N > 3). (C) Representative surface plasmon resonance (SPR) sensograms of binding of immobilized RAC1 with increasing concentrations of A41 with or without EDTA (20 mM) (N > 3). (D) Representative in vitro nucleotide exchange catalyzed by the DH-PH of TIAM (10 nM) measured by the binding of fluorescent mant-GTP (1 μM) to RAC1 (0.5 μM, preloaded with GDP) in the presence of indicated concentrations of A41 (out of N = 6). Dotted lines correspond to the experimental curves, and continuous lines represent the fit of experimental points. (E) Kobs and Kmax were determined in each condition (N = 6). (F) Predicted binding modes of A4 to the NSC23766-binding site (left) or the GDP-binding pocket of RAC1 (right). In the NSC23766-binding site of RAC1, the compound A4 (carbon atoms in blue) makes 2 hydrogen bonds (green dotted line) with Ser71 (S71) and 10 hydrophobic interactions (pink dotted line) with Ala3 (A3), Lys5 (K5), Val36 (V36), Trp56 (W56), Tyr64 (Y64), and Leu67 (L67) leading to a docking score of −6.03 kcal/mol. The GDP molecule is shown with fine line. The P loop is shown in yellow, the switch 1 in orange, and the switch 2 in green. […]
Pull-down assay using GST-PBD fusion proteins were performed on NIH-3T3 lysates to assess RAC1 activity as previously described.[63] The precipitated active RAC was subjected to SDS-PAGE and detected by immunoblot with anti-RAC1 antibody (BD biosciences) (dilution 1/1000). […]
screening molecules (10^-5 M) on NIH/3T3 cell adhesion (xCELLingence Real-time cellanalysis, Agilent), migration (CYTOO Mobility plates) and proliferation (xCELLingence Real-time cell analysis, Agilent) .The level of RAC activation is determinedby the detection of RAC-GTP (pull-down assay) in NIH/3T3 cell treated with EGF (10 ng/mL) and the differentmolecules and normalize to the level of RAC activity measuredin the presenceof the reference RAC inhibitor EHT1864.

RAC1 activation (active GTP-bound RAC1) (RAC1)	Structure (SMILES)	inhibitory effect on RAC1 [1]
no significant effect	COc1ccc(OC)c(NC(=O)c2ccc(NC(=O)CCSc3ccc(C)cc3)cc2)c1 [Compound A415]	loss of the inhibitory effect on RAC1
–	CCC(=O)Nc1ccc(S(=O)(=O)Nc2cc(OC)ccc2OC)cc1 [Compound A420]	loss of the inhibitory effect on RAC1
